In BindingDB's records for patent US10626112 (Ea Pharma, 2020):

These molecules were tested against Transient receptor potential cation channel subfamily A member 1 (Homo sapiens, UniProt O75762) (assay: Measurement of TRPA1 Antagonist Activity).
Protocol: The test substance was dissolved in dimethyl sulfoxide and serially diluted with an assay buffer containing 0.1% bovine serum albumin (1×HBSS, 20 mM HEPES, pH 7.2) to a 4.8-fold concentration of the evaluation concentration. Allylisothiocyanate, which is a known TRPA1 activator, was dissolved in dimethyl sulfoxide to 100 mM, and further diluted 5-fold (100 μM) of the final concentration, like the test substance.

Sequence of Transient receptor potential cation channel subfamily A member 1 (O75762 whole entry): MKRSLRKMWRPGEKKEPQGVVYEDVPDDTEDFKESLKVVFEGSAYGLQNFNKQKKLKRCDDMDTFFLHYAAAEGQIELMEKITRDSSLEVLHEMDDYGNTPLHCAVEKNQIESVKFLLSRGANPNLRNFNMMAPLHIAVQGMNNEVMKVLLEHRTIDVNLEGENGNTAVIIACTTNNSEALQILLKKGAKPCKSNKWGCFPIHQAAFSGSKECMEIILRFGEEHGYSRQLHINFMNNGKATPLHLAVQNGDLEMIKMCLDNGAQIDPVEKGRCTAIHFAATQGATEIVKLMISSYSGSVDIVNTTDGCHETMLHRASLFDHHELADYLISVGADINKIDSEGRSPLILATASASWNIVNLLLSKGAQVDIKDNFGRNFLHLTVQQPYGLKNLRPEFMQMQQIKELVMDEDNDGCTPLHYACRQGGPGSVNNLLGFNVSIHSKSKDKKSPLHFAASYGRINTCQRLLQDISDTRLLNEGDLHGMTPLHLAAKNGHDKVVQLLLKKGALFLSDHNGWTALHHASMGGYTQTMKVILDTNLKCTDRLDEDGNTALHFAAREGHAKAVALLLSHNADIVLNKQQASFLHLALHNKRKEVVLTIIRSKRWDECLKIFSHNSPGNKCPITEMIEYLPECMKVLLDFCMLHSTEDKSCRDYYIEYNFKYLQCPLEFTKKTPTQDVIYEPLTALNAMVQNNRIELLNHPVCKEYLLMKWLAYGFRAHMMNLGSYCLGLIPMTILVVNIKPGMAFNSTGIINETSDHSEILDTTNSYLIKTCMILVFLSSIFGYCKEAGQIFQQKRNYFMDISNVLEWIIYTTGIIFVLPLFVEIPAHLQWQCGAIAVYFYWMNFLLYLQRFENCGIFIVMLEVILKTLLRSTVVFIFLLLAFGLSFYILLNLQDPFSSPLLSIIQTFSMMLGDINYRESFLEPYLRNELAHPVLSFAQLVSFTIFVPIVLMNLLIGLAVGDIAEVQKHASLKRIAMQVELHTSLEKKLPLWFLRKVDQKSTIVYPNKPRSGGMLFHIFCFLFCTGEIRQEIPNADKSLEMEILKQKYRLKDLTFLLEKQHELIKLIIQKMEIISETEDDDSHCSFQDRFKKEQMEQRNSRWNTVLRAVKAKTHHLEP

Point of comparison: O=C(CN(Cc1ccccc1)S(=O)(=O)c1cc2cc(F)ccc2o1)NCc1cc(-c2ccc(C(F)(F)F)cn2)ccn1 [US10626112, Example 350], IC50 630 nM. Against it:
- CC(C)OCCN(CC(=O)NCc1cc(-c2ccc(C(F)(F)F)cn2)ccn1)S(=O)(=O)c1cc2cc(F)ccc2o1 [US10626112, Example 356] — 3.3-fold lower, 190 nM
- O=C(NCc1ccnc(-c2ccc(COCC(F)(F)F)nc2)c1)[C@@H]1CCCN1S(=O)(=O)c1cc2ccccc2o1 [US10626112, Example 331] — 3.7-fold lower, 170 nM
- O=C(CN(Cc1ncco1)S(=O)(=O)c1cc2cc(F)ccc2o1)NCc1cc(-c2ccc(C(F)(F)F)cn2)ccn1 [US10626112, Example 351] — 1.6-fold higher, 990 nM
- O=C(NCc1cc(-c2ccc(C(F)(F)F)cc2)ncn1)[C@@H]1CCCN1S(=O)(=O)c1cc2ccncc2o1 [US10626112, Example 347] — 8.5-fold lower, 74 nM
- O=C(CN(CC1CCNC1)S(=O)(=O)c1cc2cc(F)ccc2o1)NCc1cc(-c2ccc(C(F)(F)F)cc2)ncn1 (centres undefined) [US10626112, Example 425] — 3.3-fold lower, 190 nM
- CC(C)(C)OC[C@H](NS(=O)(=O)c1cc2cc(F)ccc2o1)C(=O)NCc1cc(-c2ccc(C(F)(F)F)cc2)ncn1 [US10626112, Example 415] — 1.5-fold lower, 410 nM
- O=C(NCc1cccc(OCc2ccc(N3CCOCC3)nc2)c1)[C@@H]1CCCN1S(=O)(=O)c1cc2cc(F)ccc2o1 [US10626112, Example 22] — 5.7-fold lower, 110 nM
- O=C(NCc1cccc(CSc2ccc(C(F)(F)F)cc2)c1)[C@@H]1CCCN1S(=O)(=O)c1cc2ccccc2o1 [US10626112, Example 299] — 26-fold lower, 24 nM
- O=C(CN(Cc1cnccn1)S(=O)(=O)c1cc2cc(F)ccc2o1)NCc1cc(-c2ccc(C(F)(F)F)cc2)ncn1 [US10626112, Example 361] — within 1.5-fold, 470 nM
- CC(C)OCCN(CC(=O)NCc1cc(-c2ccc(C(F)(F)F)cc2)ncn1)S(=O)(=O)c1cc2cc(F)ccc2o1 [US10626112, Example 358] — 5.7-fold lower, 110 nM
- O=C(CN(Cc1ccccc1)S(=O)(=O)c1cc2cc(F)ccc2o1)NCc1cc(-c2ccc(C(F)(F)F)cc2)ncn1 [US10626112, Example 352] — 1.5-fold lower, 410 nM
- O=C(CN(Cc1ncco1)S(=O)(=O)c1cc2cc(F)ccc2o1)NCc1cc(-c2ccc(C(F)(F)F)cc2)ncn1 [US10626112, Example 354] — 1.7-fold lower, 380 nM
- COCCN(CC(=O)NCc1cc(-c2ccc(C(F)(F)F)cn2)ccn1)S(=O)(=O)c1cc2cc(F)ccc2o1 [US10626112, Example 355] — 6.3-fold lower, 100 nM
